Measured values taken from PubChem BioAssay (NCI).
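48-hour exposure; five concentrations; linearly interpolated endpoints. GI50 = concentration required for 50% inhibition of growth. TGI marks complete inhibition of growth.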

Tests used:
Assay in all cases: NCI tumour cell line growth inhibition, 48 h
NCI-H23 lung = tested on: NCI-H23 lung
OVCAR-8 ovarian = tested on: OVCAR-8 ovarian
NCI-H226 lung = tested on: NCI-H226 lung
OVCAR-3 ovarian = tested on: OVCAR-3 ovarian
HL-60(TB) leukemia = tested on: HL-60(TB) leukemia
HOP-62 NSCLC = tested on: HOP-62 NSCLC
HOP-92 NSCLC = tested on: HOP-92 NSCLC
SK-MEL-5 melanoma = tested on: SK-MEL-5 melanoma

| Structure (SMILES) | GI50 (NCI-H23 lung) [µM] | TGI (NCI-H23 lung) [µM] | GI50 (OVCAR-8 ovarian) [µM] | TGI (OVCAR-8 ovarian) [µM] | GI50 (NCI-H226 lung) [µM] | TGI (NCI-H226 lung) [µM] | GI50 (OVCAR-3 ovarian) [µM] | TGI (OVCAR-3 ovarian) [µM] | GI50 (HL-60(TB) leukemia) [µM] | TGI (HL-60(TB) leukemia) [µM] | GI50 (HOP-62 NSCLC) [µM] | TGI (HOP-62 NSCLC) [µM] | GI50 (HOP-92 NSCLC) [µM] | TGI (HOP-92 NSCLC) [µM] | GI50 (SK-MEL-5 melanoma) [µM] | TGI (SK-MEL-5 melanoma) [µM] |
| --- | --- | --- | --- | --- | --- | --- | --- | --- | --- | --- | --- | --- | --- | --- | --- | --- |
| NC1=CC(=O)c2nc3ccccc3c3ccnc1c23 | 0.273 | 22.8 | 2.39 | 18.5 | 0.937 | > 32.6 | 3.6 | > 51.9 | 6.38 | > 58.8 | 4.47 | > 45.1 | – | – | – | – |
| CCN(CC)CCCC(Cc1ccccc1)Nc1c2ccc(Cl)cc2nc2ccc(OC)cc12 (stereo not drawn) | 2.9 | 8.47 | 2.34 | 5.26 | 3.63 | 14.5 | 2.88 | 12.2 | 2.11 | 4.45 | 3.39 | 12.5 | 2.1 | 4.9 | – | – |
| COc1cccc(Cn2c(-c3nonc3NC(C)=O)nc3ccccc32)c1 | 6.42 | > 100 | 6.3 | > 100 | 5.46 | > 100 | 6.56 | > 100 | – | – | 8.53 | > 100 | 2.16 | 17.6 | 3.76 | > 100 |
| CCC(c1ccc2cc(O)ccc2c1)C(C)(C)C(=O)O (stereo not drawn) | – | > 100 | – | > 100 | – | > 100 | – | > 100 | – | – | – | > 100 | – | > 100 | – | > 100 |
| N#C/C(=C1C=C/C(=N\O)C(Cl)=C\1)c1ccccc1 | 5.61 | 65.6 | 2.71 | 9.23 | 3.13 | 12.4 | 3.31 | 17 | 2.19 | 5.67 | 1.91 | 13 | – | – | 3.05 | 10.3 |
| O=C(CN1C(=O)S/C(=C\C(Cl)=C\c2ccccc2)C1=O)NCCc1ccc(O)cc1 | 2.29 | 6.15 | 2.97 | > 100 | 1.99 | 4.4 | 1.69 | 3.27 | – | – | 3.34 | 15.7 | 1.58 | 5.05 | 1.8 | 3.4 |
| Cc1ccc(NC2=C(Cl)C(=O)N(Cc3ccccc3)C2=O)cc1Cl | 4.13 | 14.6 | 2.32 | 9.93 | 0.144 | 3.83 | 3.82 | 15 | – | – | 12.6 | 25.2 | – | – | 5.64 | 19.1 |
| C=C(C)[C@@H]1CC[C@]2(C(=O)O)CC[C@]3(C)[C@H](CC[C@@H]4[C@@]5(C)C/C(=C/c6ccc(OC)cc6)C(=O)C(C)(C)[C@@H]5CC[C@]43C)[C@@H]12 | 2.44 | 8.25 | 3.16 | 33.1 | 1.85 | 4.3 | 1.69 | 3.23 | – | – | 2.24 | 7.51 | 0.738 | 3.36 | 2.03 | 4.12 |
| C=CC[C@@H]1/C=C(\C)C[C@H](C)C[C@H](OC)[C@H]2O[C@@](O)(C(=O)C(=O)N3CCCC[C@H]3C(=O)O[C@H](/C(C)=C/C3CC[C@@H](O)[C@H](OC)C3)[C@H](C)[C@@H](O)CC1=O)[C@H](C)C[C@@H]2OC (stereo partly drawn) | 16.3 | 32.7 | 16 | 39.3 | 15.3 | 30.1 | 14.2 | 27.2 | 16.4 | 38.4 | 16.2 | 31.1 | – | – | 13.7 | 26.6 |
| O=C1CC[C@H](c2ccc(O)c3c2C(=O)[C@@H]2O[C@@H]2C3=O)c2cccc(O)c21 | 3.31 | 20.4 | 3.36 | 11.2 | 3.21 | 12.4 | – | – | 1.93 | 5.87 | 3.1 | 11.6 | 2.38 | 5.12 | 3.54 | 12.1 |
| COc1ccc(-c2nn(-c3cccc(NC(=O)c4cccc(C(F)(F)F)c4)c3)cc2-c2ccncc2)cc1Cl | 3.58 | 92.8 | 3.34 | > 100 | 4.92 | > 100 | – | – | 2.96 | 8.64 | 3.07 | > 100 | 1 | 6.54 | 1.06 | 4.4 |
| Oc1ccc(-c2cn3cc(Cl)sc3n2)cc1 | – | – | 56.3 | > 100 | 5.49 | 48.5 | 22.5 | 64.1 | – | – | > 100 | > 100 | – | – | 29.8 | 78.1 |
| CCC1CC(C)=CCN1S(=O)(=O)c1ccc(C)cc1 (stereo not drawn) | – | – | – | > 100 | – | 80.7 | – | 44.9 | – | 18 | – | 84.6 | – | – | – | 26.8 |
| COc1ccc(-c2nc(N3CCOCC3)c3sc(CN(C)c4ncc(C(=O)NO)cn4)cc3n2)cn1 | 0.0103 | 0.601 | < 0.01 | 0.222 | 0.0112 | 1.13 | < 0.01 | 0.0282 | < 0.01 | 1.06 | < 0.0106 | 0.123 | 0.0147 | 0.0508 | – | – |
